Earlier results in patent US20100151020A1, “DRUG […] SYSTEM FOR ZERO ORDER, ZERO ORDER BIPHASIC, ASCENDING OR […] […] OF METHYLPHENIDATE” (priority 2008, published 2010).
Where a name gives a salt, the structure may show the parent alone. Read-outs that look alike come from different tables or passages of the source.

What was measured:
[1] = chronic methylphenidate dosing
[2] = reports

## COC(=O)C(c1ccccc1)C1CCCCN1 (stereo not shown) [methylphenidate HCl]
[1]
  primary adverse events: nervousness, insomnia, and appetite suppression
adults
  drug excreted: 80%
children
  drug excreted: 67%
children, immediate release
  time to peak: 1.9 h
  time to peak, range: 0.3 to 4.4 h
Immediate release
  pharmacokinetic half-life: 2 to 3 h
[2]
  AD/HD patients responding positively: 70-90%
